Reference: the supplement of paper PMC10307832

Key:
Assay in all cases: relative viability (nuclei count vs DMSO), 5 days (fraction); higher = more cells survive
OSI-027 + Phenformin = compound: COc1cccc2cc(-c3nc([C@H]4CC[C@H](C(=O)O)CC4)n4ncnc(N)c34)[nH]c12 [OSI-027] + N=C(N)NC(=N)NCCc1ccccc1 [Phenformin] (partner 250 µM)
In short: (§1)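 Relative viability is defined as nuclei in treated wells over nuclei in vehicle wells. Duplicate plates were run and medians reported. Lung cancer cell lines in 1536-well plates were dosed by pin tool one day after seeding, with one drug or with a fixed anchor-drug dose plus five library-drug doses (not always all listed) in √10 steps, and nuclei were counted after 5 days.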

OSI-027 + Decitabine = compound: COc1cccc2cc(-c3nc([C@H]4CC[C@H](C(=O)O)CC4)n4ncnc(N)c34)[nH]c12 [OSI-027] + Nc1ncn([C@H]2C[C@H](O)[C@@H](CO)O2)c(=O)n1 [Decitabine] (partner 2 µM)
In short: as §1

OSI-027 + Olaparib = compound: COc1cccc2cc(-c3nc([C@H]4CC[C@H](C(=O)O)CC4)n4ncnc(N)c34)[nH]c12 [OSI-027] + O=C(c1cc(Cc2n[nH]c(=O)c3ccccc23)ccc1F)N1CCN(C(=O)C2CC2)CC1 [Olaparib] (partner 8 µM)
In short: as §1

OSI-027 + Foretinib = compound: COc1cccc2cc(-c3nc([C@H]4CC[C@H](C(=O)O)CC4)n4ncnc(N)c34)[nH]c12 [OSI-027] + COc1cc2c(Oc3ccc(NC(=O)C4(C(=O)Nc5ccc(F)cc5)CC4)cc3F)ccnc2cc1OCCCN1CCOCC1 [Foretinib] (partner 0.25 µM)
In short: as §1

| Cell Line | relative viability (OSI-027 + Phenformin; first compound 0.01 µM) | relative viability (OSI-027 + Phenformin; first compound 0.03162 µM) | relative viability (OSI-027 + Phenformin; first compound 0.1 µM) | relative viability (OSI-027 + Phenformin; first compound 0.3162 µM) | relative viability (OSI-027 + Phenformin; first compound 1 µM) | relative viability (OSI-027 + Decitabine; first compound 0.01 µM) | relative viability (OSI-027 + Decitabine; first compound 0.03162 µM) | relative viability (OSI-027 + Decitabine; first compound 0.1 µM) | relative viability (OSI-027 + Decitabine; first compound 0.3162 µM) | relative viability (OSI-027 + Decitabine; first compound 1 µM) | relative viability (OSI-027 + Olaparib; first compound 0.01 µM) | relative viability (OSI-027 + Olaparib; first compound 0.03162 µM) | relative viability (OSI-027 + Olaparib; first compound 0.1 µM) | relative viability (OSI-027 + Olaparib; first compound 0.3162 µM) | relative viability (OSI-027 + Olaparib; first compound 1 µM) | relative viability (OSI-027 + Foretinib; first compound 0.01 µM) | relative viability (OSI-027 + Foretinib; first compound 0.03162 µM) | relative viability (OSI-027 + Foretinib; first compound 0.1 µM) | relative viability (OSI-027 + Foretinib; first compound 0.3162 µM) | relative viability (OSI-027 + Foretinib; first compound 1 µM) |
| --- | --- | --- | --- | --- | --- | --- | --- | --- | --- | --- | --- | --- | --- | --- | --- | --- | --- | --- | --- | --- |
| A549 | 0.176 | 0.154 | 0.122 | 0.171 | 0.0806 | 0.301 | 0.256 | 0.272 | 0.319 | 0.102 | 0.465 | 0.258 | 0.305 | 0.282 | 0.0927 | 1.14 | 1.04 | 1.01 | 0.84 | 0.465 |
| NCI-H2126 | 0.527 | 0.555 | 0.437 | 0.405 | 0.404 | 0.558 | 0.553 | 0.565 | 0.523 | 0.601 | 0.939 | 0.904 | 0.879 | 0.835 | 0.578 | 1.3 | 0.983 | 1.2 | 0.862 | 0.786 |
| HCC-827 | 0.358 | 0.423 | 0.408 | 0.4 | 0.328 | 0.304 | 0.291 | 0.3 | 0.329 | 0.277 | 0.669 | 0.58 | 0.648 | 0.599 | 0.326 | 1.19 | 1.03 | 0.991 | 0.855 | 0.411 |
| NCI-H1650 | 0.37 | 0.366 | 0.444 | 0.378 | 0.253 | 0.454 | 0.45 | 0.471 | 0.308 | 0.314 | 0.794 | 0.825 | 0.873 | 0.807 | 0.722 | 1.42 | 1.21 | 1.19 | 1.25 | 0.797 |
| LK-2 | 0.437 | 0.344 | 0.328 | 0.155 | 0.275 | 0.207 | 0.251 | 0.231 | 0.234 | 0.142 | 0.611 | 0.642 | 0.654 | 0.476 | 0.173 | 1.13 | 1.2 | 1.13 | 0.778 | 0.195 |
| PC-14 | 0.582 | 0.466 | 0.488 | 0.392 | 0.276 | 0.208 | 0.278 | 0.239 | 0.231 | 0.217 | 0.228 | 0.267 | 0.292 | 0.306 | 0.23 | 0.937 | 0.843 | 1.03 | 0.958 | 0.847 |
| NCI-H1355 | 0.409 | 0.45 | 0.46 | 0.407 | 0.304 | 0.329 | 0.437 | 0.356 | 0.376 | 0.243 | 0.702 | 0.667 | 0.663 | 0.521 | 0.342 | 1.01 | 0.784 | 0.928 | 0.763 | 0.33 |
| LXF-289 | 0.525 | 0.518 | 0.543 | 0.484 | 0.398 | 0.378 | 0.355 | 0.379 | 0.367 | 0.349 | 1.07 | 1.05 | 1.13 | 0.971 | 0.625 | 0.956 | 0.989 | 1.01 | 0.903 | 0.747 |
| LOU-NH91 | 0.699 | 0.679 | 0.504 | 0.548 | 0.411 | 0.804 | 0.825 | 0.73 | 0.718 | 0.613 | 0.91 | 0.907 | 0.844 | 0.843 | 0.638 | 0.924 | 0.914 | 0.818 | 0.8 | 0.58 |
| NCI-H2170 | 0.429 | 0.401 | 0.431 | 0.436 | 0.275 | 0.459 | 0.491 | 0.463 | 0.421 | 0.31 | 0.664 | 0.592 | 0.604 | 0.525 | 0.346 | 1.1 | 0.962 | 0.981 | 0.965 | 0.667 |
| NCI-H2405 | 0.39 | 0.355 | 0.338 | 0.327 | 0.27 | 0.688 | 0.74 | 0.709 | 0.634 | 0.451 | 0.886 | 0.838 | 0.823 | 0.694 | 0.456 | 1.02 | 0.968 | 0.918 | 0.734 | 0.537 |
| SK-MES-1 | 0.637 | 0.608 | 0.64 | 0.576 | 0.305 | 0.362 | 0.36 | 0.304 | 0.307 | 0.223 | 0.62 | 0.605 | 0.532 | 0.417 | 0.285 | 0.874 | 1.1 | 0.926 | 0.69 | 0.447 |
| LCLC-103H | 0.348 | 0.337 | 0.36 | 0.284 | 0.272 | 0.748 | 0.732 | 0.707 | 0.598 | 0.783 | 0.731 | 0.753 | 0.749 | 0.702 | 0.817 | 0.693 | 0.658 | 0.786 | 0.666 | 0.334 |
| NCI-H322M | 0.737 | 0.748 | 0.674 | 0.531 | 0.498 | 0.66 | 0.658 | 0.694 | 0.662 | 0.542 | 0.818 | 0.718 | 0.813 | 0.666 | 0.505 | 0.942 | 0.93 | 0.764 | 0.654 | 0.517 |
